Reference: ChEMBL document CHEMBL3877316, “Synthesis of pharmacologically important naphthoquinones and anticancer activity of 2-benzyllawsone through DNA topoisomerase-II inhibition” (Bioorg Med Chem, 2017)
pIC50: −log10 of the molar value.

Tests used:
[1] = Antiproliferative activity against human DLD1 cells after 48 hrs by SRB assay; assay type: functional, cell-based; conditions: DLD-1, 48 h
Mus musculus [2] = assay: Acute toxicity in Swiss albino mouse assessed as body weight at 50 mg/kg, po qd administered as single dose for 7 days (reference value: 27.73 +/- 0.94 g); assay type: organism-based; conditions: in vivo, 168 h
Mus musculus [3] = assay: Acute toxicity in Swiss albino mouse assessed as serum haemoglobin level at 300 mg/kg, po qd administered as single dose for 7 days (reference value: 13.29 +/- 0.46 g/dl); assay type: organism-based; conditions: in vivo, 168 h
Mus musculus [4] = assay: Acute toxicity in Swiss albino mouse assessed as serum RBC level at 1000 mg/kg, po qd administered as single dose for 7 days (reference value: 9.07 +/- 1.13 million/mm3); assay type: organism-based; conditions: in vivo, 168 h
Mus musculus [5] = assay: Acute toxicity in Swiss albino mouse assessed as serum WBC level at 50 mg/kg, po qd administered as single dose for 7 days (reference value: 8.64 +/- 0.42 10^3/mm3); assay type: organism-based; conditions: in vivo, 168 h
Mus musculus [6] = assay: Acute toxicity in Swiss albino mouse assessed as serum albumin level at 50 mg/kg, po qd administered as single dose for 7 days (reference value: 2.49 +/- 0.17 g/dl); assay type: organism-based; conditions: in vivo, 168 h
Mus musculus [7] = assay: Acute toxicity in Swiss albino mouse assessed as effect on monocyte count up to 1000 mg/kg, po qd administered as single dose for 7 days; assay type: organism-based; conditions: in vivo, 168 h

For `O=C1C=C(OCc2ccccc2)C(=O)c2ccccc21`, the pIC50 [1] was 4.79, the Activity (Mus musculus [2]) was 26.76 g and the Activity (Mus musculus [3]) was 13.42 g/dL. For the same molecule, the Activity (Mus musculus [4]) was 8.89 million/mm3, the Activity (Mus musculus [5]) was 8.38 ×10³ /mm3 and the Activity (Mus musculus [6]) was 2.7 g/dL. For the same molecule, the Activity (Mus musculus [7]) was “Non-Toxic”.
